Results reported in patent publication US8053476B2, “Method for treating peripheral neuropathic pain” (UCB Pharma GmbH, priority 2001, dated 2011).

How the values were obtained:
rat [1] = assay: Formalin test, rat: prolonged inflammatory pain (weighted pain score); assay type: in vivo; conditions: i.p. just prior to formalin injection, 5-40 mg/kg
Method: The formalin test is a chemically-induced tonic pain model in which biphasic changes of nociceptive behaviour are assessed and spinal/supraspinal plasticity of nociception is considered as a molecular basis for neuropathic pain particularly during the second (=late) phase of the test, during which most clinically used drugs against neuropathic pain are active.
The compound was tested for anti-nociceptive properties by use of the weighted behavioural scoring method: Freely moving animals underwent observational assessment of the position of the left hind paw according to a rating score scaled 0-3 before and 10, 20, 30 and 40 min after injection of 0.05 ml of sterile 2.5% formalin under the skin on the dorsal surface of the paw.

rat [2] = assay: Chronic constriction injury (CCI, Bennett-model), thermal hyperalgesia (Hargreaves); assay type: in vivo; conditions: for Withdrawal latency, Post-operative + SPM 927: ligated hind paw, radiant heat, ±SEM
Method: (§1) The effectiveness of SPM 927 in reducing spontaneous chronic pain, mechanical allodynia, and thermal hyperalgesia was tested using the chronic constriction injury (CCI) model of peripheral neuropathy, one of the best characterised in vivo animal models used to study chronic pain due to peripheral nerve injury. In this model, loose ligatures are placed around the sciatic nerve, which produces axonal swelling and a partial deafferentation manifested as a significant but incomplete loss of axons in the distal portion of the peripheral nerve. One of the prominent behaviours seen following sciatic nerve ligation is the appearance of hind paw guarding, thought to be an indication of an ongoing spontaneous chronic pain. Support for this idea is derived from reports of increased spinal cord neural activity, and increased spontaneous neuronal discharge in spinothalamic tract neurons and in the ventrobasal thalamus in the absence of overt peripheral stimulation. In addition to the appearance of spontaneous pain behaviours, several abnormalities in stimulus evoked pain occur as a result of CCI, including thermal hyperalgesia and mechanical allodynia. The development of these abnormal stimulus-evoked pains has also been reported as occurring in areas outside the territory of the damaged nerve, areas innervated by uninjured nerves.
Behavioural tests for thermal hyperalgesia, and mechanical allodynia were conducted to evaluate different components of neuropathic pain. Baseline data for each test was collected prior to any experimental procedure; in addition, all animals were tested for the development of chronic pain behaviours 13-25 days after CCI surgery 1 day prior to the day of vehicle (0.04 ml sterile water/10 g body weight) or drug administration and after vehicle or drug administration. The sequence of the pain-related behaviour tests was (1) thermal hyperalgesia, (2) mechanical allodynia in order to minimise the influence of one test on the result of the next. The testing procedures and results are presented separately for each aspect of chronic pain. Either 0 (vehicle, 0.04 ml/10 g body weight), 5, 10, 20 or 40 mg/kg of SPM 927 (n=7-23/group) was administered i.p. 15 minutes before the first behavioural test.
(1) Thermal hyperalgesia was assessed by means of withdrawal latency in response to radiant heat applied to the subplantar surface of the ligated rat hind paw according to Hargreaves. As compared to the baseline latency (s), a significant decrease in the (postoperative) latency of foot withdrawal in response to the thermal stimulus was interpreted as indicating the presence of thermal hyperalgesia following chronic constriction injury.

rat [3] = assay: Chronic constriction injury (CCI, Bennett-model), mechanical allodynia (Von Frey pressure algometer); assay type: in vivo; conditions: for Pressure to elicit foot withdrawal, Post-operative + SPM 927: ligated hind paw, ±SEM
Method: as §1
Behavioural tests for thermal hyperalgesia, and mechanical allodynia were conducted to evaluate different components of neuropathic pain. Baseline data for each test was collected prior to any experimental procedure; in addition, all animals were tested for the development of chronic pain behaviours 13-25 days after CCI surgery 1 day prior to the day of vehicle (0.04 ml sterile water/10 g body weight) or drug administration and after vehicle or drug administration. […]
Mechanical sensitivity and allodynia of the ligated rat hind paw was quantified by brisk foot withdrawal in response to normally innocuous mechanical stimuli as described previously. […]

rat [4] = assay: Randall-Selitto paw pressure test, carrageenan induced acute inflammation; assay type: in vivo; conditions: for Mechanical nociceptive threshold pressure, Carrageenan + SPM 927: ±SEM, n=12
Method: Further potential anti-nociceptive efficacy of SPM 927 was assessed in a rat experimental model of acute inflammation using a modified Randall and Selitto procedure. Acute inflammation is induced by injection of s.c. carrageenan (1.0 mg in 0.1 ml saline/paw), an unspecific inflammatory agent, into the plantar surface of one hind paw of the animal. Mechanical sensitivity and nociceptive thresholds were measured using an algesimeter device that exerts a constantly increasing mechanical force (10 mm Hg/sec) on the inflammed hind paw. The mechanical nociceptive threshold is defined as the pressure (mm Hg) at which the rat vocalises or struggles or withdraws its paw. Since its original description, the Randall and Selitto mechanical paw pressure test has become a standard method for testing the efficacy of new compounds for alleviating acute inflammatory pain.
SPM 927 or vehicle (sterile water, 0.04 […]) was administered i.p. 1 hr and 45 minutes after carrageenan, meaning 15 to 20 minutes before the start of behavioural testing. As compared to the response threshold of vehicle-treated controls, an increase in the pressure required to produce a behavioural response is interpreted as antinociception.

female Wistar rats = assay: Freund's complete adjuvant arthritis model, paw pressure test (Randall Selitto), vocalisation; assay type: in vivo, rat
Method: Experiments were performed in female Wistar rats weighing 80-90 g at the beginning of the experiments. Arthritis was induced by intraplantar injection of Freund's complete adjuvant (FCA, 0.1 ml) to one hindpaw. Drugs were given on day 11 after FCA injection in animals which developed systemic secondary arthritic symptoms as assessed by visual inspection. Mechanical hyperalgesia was than acutely applied and measured by means of the paw pressure test (Randall Selitto method) and supraspinal vocalisation as the biological endpoint of the nociceptive reaction. Measurements were taken at 0 min (before drug injection) and 15 min, 30 min, 60 min, and 24 h after drug injection and all data are expressed as percent of maximal possible effect (% MPE).
10 groups of 15 rats were used and received the following treatments: […]

## COC[C@@H](NC(C)=O)C(=O)NCc1ccccc1 [SPM 927, (R)-2-acetamide-N-benzyl-3-methoxypropionamide]
Rat [1]
  Effect on formalin-induced nociceptive behaviour: dose dependent reduction of the formalin-induced tonic inflammatory nociceptive behaviour
Rat [2]; 5 mg/kg i.p.
  Withdrawal latency, Post-operative + SPM 927: 9.1 ± 0.97 s
Rat [2]; 10 mg/kg i.p.
  Withdrawal latency, Post-operative + SPM 927: 8.0 ± 0.58 s
Rat [2]; i.p.
  Dose at which maximum effect on thermal hyperalgesia was seen: 20 mg/kg
Rat [2]; i.p., significant only at 20 and 40 mg/kg
  Effect on CCI-induced thermal hyperalgesia: dose dependently reduced chronic constriction injury-induced thermal hyperalgesia
Rat [3]; 20 mg/kg i.p.
  Pressure to elicit foot withdrawal, Post-operative + SPM 927: 39.5 ± 3.62 g/mm^2
Rat [3]; 40 mg/kg i.p.
  Pressure to elicit foot withdrawal, Post-operative + SPM 927: 42.9 ± 5.47 g/mm^2
Rat [3]; i.p., 5-40 mg/kg
  Effect on mechanical allodynia induced by unilateral nerve ligation: dose dependently reduced the intensity of mechanical allodynia
Rat [4]; 20 mg/kg i.p. 1 hr 45 min after carrageenan
  Mechanical nociceptive threshold pressure, Carrageenan + SPM 927: 164.8 ± 13.5 mm Hg
Rat [4]; 40 mg/kg i.p. 1 hr 45 min after carrageenan
  Mechanical nociceptive threshold pressure, Carrageenan + SPM 927: 232.7 ± 22.0 mm Hg
Rat [4]; 20 and 40 mg/kg i.p.
  Effect on carrageenan induced mechanical hyperalgesia: markedly reduced the mechanical hyperalgesia induced by carrageenan
Female Wistar rats; 30 mg/kg early (with FCA)
  Anti-inflammatory effect in FCA arthritis: no anti-inflammatory effects
Female Wistar rats; 5-40 mg/kg acute, significant at 30 and 40 mg/kg
  Anti-nociceptive effect in FCA arthritis: dose-dependent anti-nociceptive
Female Wistar rats; FCA rats, 5 mg/kg acute (day 11), 15 min
  % MPE: −5 % MPE
Female Wistar rats; FCA rats, 5 mg/kg acute (day 11), 30 min
  % MPE: −5 % MPE
Female Wistar rats; FCA rats, 5 mg/kg acute (day 11), 60 min
  % MPE: −12 % MPE
Female Wistar rats; FCA rats, 5 mg/kg acute (day 11), 24 h
  % MPE: −14 % MPE
Female Wistar rats; FCA rats, 10 mg/kg acute (day 11), 15 min
  % MPE: +7 % MPE
Female Wistar rats; FCA rats, 10 mg/kg acute (day 11), 30 min
  % MPE: −2 % MPE
Female Wistar rats; FCA rats, 10 mg/kg acute (day 11), 60 min
  % MPE: 0 % MPE
Female Wistar rats; FCA rats, 10 mg/kg acute (day 11), 24 h
  % MPE: −5 % MPE
Female Wistar rats; FCA rats, 20 mg/kg acute (day 11), 15 min
  % MPE: +1 % MPE
Female Wistar rats; FCA rats, 20 mg/kg acute (day 11), 30 min
  % MPE: −20 % MPE
Female Wistar rats; FCA rats, 20 mg/kg acute (day 11), 60 min
  % MPE: −9 % MPE
Female Wistar rats; FCA rats, 20 mg/kg acute (day 11), 24 h
  % MPE: −20 % MPE
Female Wistar rats; FCA rats, 30 mg/kg acute (day 11), 15 min
  % MPE: +58 % MPE
Female Wistar rats; FCA rats, 30 mg/kg acute (day 11), 30 min
  % MPE: +33 % MPE
Female Wistar rats; FCA rats, 30 mg/kg acute (day 11), 60 min
  % MPE: +16 % MPE
Female Wistar rats; FCA rats, 30 mg/kg acute (day 11), 24 h
  % MPE: −8 % MPE
Female Wistar rats; FCA rats, 30 mg/kg early (with FCA), anti-inflammatory effects group, 15 min
  % MPE: −14 % MPE
Female Wistar rats; FCA rats, 30 mg/kg early (with FCA), anti-inflammatory effects group, 30 min
  % MPE: −7 % MPE
Female Wistar rats; FCA rats, 30 mg/kg early (with FCA), anti-inflammatory effects group, 60 min
  % MPE: −3 % MPE
Female Wistar rats; FCA rats, 30 mg/kg early (with FCA), anti-inflammatory effects group, 24 h
  % MPE: −11 % MPE
Female Wistar rats; FCA rats, 40 mg/kg acute (day 11), 15 min
  % MPE: +100 % MPE
Female Wistar rats; FCA rats, 40 mg/kg acute (day 11), 30 min
  % MPE: +100 % MPE
Female Wistar rats; FCA rats, 40 mg/kg acute (day 11), 60 min
  % MPE: +14 % MPE
Female Wistar rats; FCA rats, 40 mg/kg acute (day 11), 24 h
  % MPE: −7 % MPE
Female Wistar rats; FCA rats, most prominent during first 30 min
  Dose at which anti-nociceptive effects started: 30 mg/kg

## CN1CC[C@]23c4c5ccc(O)c4O[C@H]2[C@@H](O)C=C[C@H]3[C@H]1C5 [morphine, reference compound]
Female Wistar rats; 10 mg/kg, arthritic and normal animals
  Antinociceptive effect of positive control: clear antinociceptive effects in arthritic and normal animals
Female Wistar rats; FCA rats (disease condition), 10 mg/kg, 15 min
  % MPE: +100 % MPE
Female Wistar rats; FCA rats (disease condition), 10 mg/kg, 30 min
  % MPE: +100 % MPE
Female Wistar rats; FCA rats (disease condition), 10 mg/kg, 60 min
  % MPE: +100 % MPE
Female Wistar rats; FCA rats (disease condition), 10 mg/kg, 24 h
  % MPE: −7 % MPE
Female Wistar rats; no FCA (normal condition), 10 mg/kg, 15 min
  % MPE: +100 % MPE
Female Wistar rats; no FCA (normal condition), 10 mg/kg, 30 min
  % MPE: +100 % MPE
Female Wistar rats; no FCA (normal condition), 10 mg/kg, 60 min
  % MPE: +100 % MPE
Female Wistar rats; no FCA (normal condition), 10 mg/kg, 24 h
  % MPE: +2 % MPE
